Test results from US20240382475A1, “Quinazoline Derivative, Or Preparation Method Therefor And Use Thereof” (Zhejiang Hisun Pharmaceutical Co., Ltd., priority 2021, published 2024).

Legend:
[1] = Pharmacokinetic evaluation in ICR mice; assay type: in vivo; settings: male, mouse, plasma, PO 10 mg/kg
Text: ICR normal mice were used as test animals, and LC/MS/MS was used to determine the drug concentrations at different moments in plasma of ICR mice by intragastric administration. The pharmacokinetic behavior of the compounds of the present invention in ICR mice was studied to evaluate the pharmacokinetic characteristics of the above compounds.
Compound 4, Compound 26 and Compound 32.
ICR mice, male, 27.8-38 g, were purchased from Zhejiang Vital River Laboratory Animal Technology Co., Ltd.
An appropriate amount of the compound was weighed, and DMA:30% Solutol HS-15:Saline=5:5:90 (v/v/v) was used as the solvent to prepare a fully dissolved solution, and then administered to obtain a 1 mg/mL colorless solution.
The ICR mice in the intragastric group of each compound to be tested (nine mice in each group) were fasted overnight followed by intragastric administration (administration dosage was 10 mg/kg and the administration volume was 10 mL/kg), and ate 4 hours after administration.
0.1 mL of blood was collected via orbit before administration and 0.25 hour, 0.5 hour, 1 hour, 2 hours, 4 hours, 8 hours, 12 hours, and 24 hours after administration, and placed in EDTA-K2 anticoagulant tubes. The collected blood samples were placed on ice, and plasma was separated by centrifugation (centrifugation condition: 1500 g, 10 minutes). The collected plasma samples were stored at −40˜−20° C. before analysis.
LC-MS/MS was used to determine the content of the compound to be tested in mouse plasma after intragastric administration.

[2] = test system: human lung cancer NCI-H2122 subcutaneous xenotransplanted tumor; test: Pharmacodynamic evaluation in nude mouse subcutaneous xenotransplanted model of human lung cancer NCI-H2122; assay type: in vivo, Balb/c nude mouse
Description: The anti-tumor effect and safety of compound 11 of the present invention were evaluated in a Balb/c nude mouse animal model of subcutaneous xenotransplanted NCI-H2122.
BALB/c; nude mice, female, 6-7 weeks old (the age of mice when tumor cells were inoculated), purchased from Jiangsu Jicui Yaokang Biotechnology Co., Ltd.
The solvent control group was given DMSO:castor oil:5% glucose injection=20:10:70 (v/v/v).
(§1) AMG-510: an appropriate amount of AMG-510 was weighed, and an appropriate amount of DMSO:castor oil:5% glucose injection=20:10:70 (v/v/v) was added. After the above mixture was fully dissolved, an appropriate amount of 1 M hydrochloric acid was added, vortexed and mixed to prepare a solution with a concentration of 3 mg/mL.
as §1, with “Compound 11:” for “AMG-510:”, “compound 11” for “AMG-510”
H2122 cells were cultured in 1640 culture medium containing 10% fetal bovine serum and 1% penicillin-streptomycin-amphotericin B solution. H2122 cells in the exponential growth phase were collected and resuspended in matrigel solution (matrigel:PBS=1:1 (V/V)) to a suitable concentration for subcutaneous tumor inoculation in nude mice.
Female Balb/c nude mice were subcutaneously inoculated with about 3.0×10^6H2122 cells on the right sides of their backs. When the average volume of the tumors reaches about 150-200 mm^3, the mice were randomly divided according to the tumor sizes with 6 mice in each group.
• Group 1 (G1), solvent control group; • Group 2 (G2), AMG-510 was given by intragastric administration at a dose of 30 mg/kg; • Group 3 (G3), Example 11 was given by intragastric administration at a dose of 30 mg/kg; • Group 4 (G4), AMG-510 and Example 11 were administered in combination, and the dosages were respectively: AMG-510, 30 mg/kg (QD); Example 11, 30 mg/kg (QD).
After tumor inoculation, routine monitoring included the effects of tumor growth and treatment on the normal behaviors of the animals, specifically the mobility, feeding and drinking, weight gain or loss, eyes, coat and other abnormalities of the experimental animals.
Calculation formulae for a relative tumor volume (RTV), a relative tumor proliferation rate (T/C) and a tumor inhibition percentage (IR) were as follows: • (1) TV (tumor volume)=½×a×b^2, wherein a and b represent the length and width of the tumor respectively; • (2) RTV (relative tumor volume)=Vt/Vo, wherein Vo is the tumor volume measured at the time of administration when grouping (i.e. do), and Vt is the tumor volume at each measurement; • (3) relative tumor proliferation rate T/C (%)=TRTV/CRTV×100%, wherein TRTV is the RTV of the treatment group and CRTV is the RTV of the control group; • (4) Tumor growth inhibition rate TGI(%)=(1−T/C)×100%; wherein, T and C are the relative tumor volumes of the treatment group and the control group at a specific time point. • (5) IR (%)=(1−TWt/TWc)×100%, wherein, TWt is the tumor weight of the treatment group and TWc is the tumor weight of the control group. The anti-tumor evaluation criteria are (cytotoxic drugs): T/C(%)>40% is invalid; T/C(%)≤40%, and after statistical processing, P<0.05 is effective.

[3] = 16 days after administration, 30 mg/kg each agent
[4] = end of the experiment, 30 mg/kg each agent

Row | SMILES | AUC(0-t) ([1]; read-out: Area under curve AUC0-t) [ng·h/mL] | half-life ([1]; read-out: Half-life T1/2 (converted)) [min] | Cmax ([1]; read-out: Plasma concentration Cmax) [ng/mL] | Relative tumor volume (x ± S) [2, 3] | TGI % [2, 3] [%] | Tumor volume (x ± S) ([2]; Day 0 after administration, 30 mg/kg each agent, intragastric) [mm^3] | Tumor volume (x ± S) ([2]; Day 3 after administration, 30 mg/kg each agent, intragastric) [mm^3] | Tumor volume (x ± S) ([2]; Day 7 after administration, 30 mg/kg each agent, intragastric) [mm^3] | Tumor volume (x ± S) ([2]; Day 10 after administration, 30 mg/kg each agent, intragastric) [mm^3] | Tumor volume (x ± S) ([2]; Day 14 after administration, 30 mg/kg each agent, intragastric) [mm^3] | Tumor volume (x ± S) ([2]; Day 16 after administration, 30 mg/kg each agent, intragastric) [mm^3] | Tumor volume (x ± S) ([2]; Table 11, 16 days after administration, 30 mg/kg each agent, in mm³) | Inhibition rate of tumor weight (%) [2, 4] [%] | Tumor weight (g) (x ± S) [2, 4] | anti-tumor activity (conclusion in words) ([2]; under the combination with AMG-510, KRAS-G12C inhibitor non-sensitive cell line NCI-H2122)
1 | COc1cc2nc(C)nc(N[C@H](C)c3cccc(C#N)c3C)c2cc1N1CCC2(CCOCC2)CC1 [Compound 4, (R)-3-(1-((7-methoxy-2-methyl-6-(3-oxa-9-azaspiro[5.5]undecan-9-yl)quinazolin-4-yl)amino)ethyl)-2-methylbenzonitrile] | 5820 | 51 | 2310 |  |  |  |  |  |  |  |  |  |  |  | 
2 | COc1cc2nc(C)nc(N[C@H](C)c3cccc(C#N)c3C)c2cc1N1CCC(C)(O)CC1 [Compound 11, (R)-3-(1-((6-(4-hydroxy-4-methylpiperidin-1-yl)-7-methoxy-2-methylquinazolin-4-yl)amino)ethyl)-2-methylbenzonitrile] |  |  |  | 4.03 ± 0.67 | 20.7 | 199 ± 18 | 329 ± 36 | 460 ± 53 | 551 ± 60 | 704 ± 88 | 757 ± 90 | 757 ± 90 | 16.8 | 0.6283 ± 0.0663 | good anti-tumor activity
